Results on 8 compounds are retold here after ChEMBL document CHEMBL1201862, “PubChem BioAssay data set” (2004).

Some test systems named below: MDA-MB-435; SR; ACHN; HL-60; LOX IMVI; SN12C; COLO 205; KM12; SF-295; UACC-257; NCI-H23; OVCAR-3; HCC 2998; IGROV-1; NCI-H522; MDA-N; SW-620; M14; SK-OV-3; MDA-MB-231.
What all share (assay): growth of human tumour cells (NCI), 48 h

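Method: 48-hour compound exposure of cells in 96-well plates, five concentrations, linear interpolation of endpoints. GI50 is the concentration that inhibits growth by half.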 Activity calls are given as the source filed them. Rule as the data show it: active = GI50 up to about 1.1 µM and inactive = higher. Where only a bound is given, the exact number is not on record here.

Take `CN(C)c1ccc(/C=C2\C[C@H]3[C@@H]4CCc5cc(OCCN6CCCC6)ccc5[C@H]4CC[C@]3(C)[C@H]2O)cc1`: the GI50 was 8.43 µM (inactive) with MDA-MB-435; 3.29 µM (inactive) in the assay on SR; 18.1 µM (inactive) in the assay on ACHN; 18.9 µM (inactive) in the assay on HL-60; 7.08 µM (inactive) with LOX IMVI; 16.9 µM (inactive) in the assay with SN12C. Further, the GI50 was 13.5 µM (inactive) with COLO 205; 5.71 µM (inactive) with KM12; 13.1 µM (inactive) in the assay with SF-295; 6.11 µM (inactive) in the assay on UACC-257; 15.1 µM (inactive) with NCI-H23; 14.6 µM (inactive) in the assay on OVCAR-3. The GI50 in the assay on HCC 2998 is 5.7 µM (inactive); in the assay with IGROV-1, 16.1 µM (inactive); with NCI-H522, 4.26 µM (inactive); in the assay on MDA-N it was 14.8 µM (inactive); with SW-620, 6.53 µM (inactive); with M14, 4.27 µM (inactive). The figures for the GI50 in the assay with SK-OV-3 and in the assay with MDA-MB-231 were 16.6 µM (inactive) and 7.14 µM (inactive), respectively.

Turning to `COc1cc(OC)c2nccc(NCCCN(C)C)c2c1[N+](=O)[O-]`, the GI50 was > 100 µM (inactive) in the assay with MDA-MB-435; 24.7 µM (inactive) in the assay with SR; > 100 µM (inactive) in the assay on ACHN; 39.3 µM (inactive) in the assay with HL-60; > 100 µM (inactive) in the assay with LOX IMVI; > 100 µM (inactive) in the assay on SN12C. The GI50 in the assay on COLO 205 is 34.1 µM (inactive); in the assay with KM12, > 100 µM (inactive); with SF-295 it was > 100 µM (inactive); in the assay on UACC-257, 58.3 µM (inactive); in the assay with NCI-H23, > 100 µM (inactive); in the assay with OVCAR-3, 49.3 µM (inactive). Further, the GI50 was > 100 µM (inactive) with HCC 2998; 49.5 µM (inactive) with IGROV-1; > 100 µM (inactive) in the assay on NCI-H522; > 100 µM (inactive) in the assay on MDA-N; 95.9 µM (inactive) in the assay on SW-620; 27.3 µM (inactive) in the assay with M14. Moreover, the GI50 in the assay on SK-OV-3 and in the assay on MDA-MB-231 was > 100 µM (inactive) in each case.

In the case of `CC(C)OC(=O)c1ccc(NCC2=CC(=O)C=CC2=O)cc1`, the GI50 was 13.6 µM (inactive) in the assay with MDA-MB-435; 2.39 µM (inactive) with SR; 12 µM (inactive) with ACHN; 2.2 µM (inactive) in the assay with HL-60; 12.8 µM (inactive) in the assay with LOX IMVI; 12.9 µM (inactive) in the assay on SN12C. The GI50 is 3.8 µM (inactive) with COLO 205; 16.6 µM (inactive) in the assay with KM12; 28.2 µM (inactive) in the assay with SF-295; 14.1 µM (inactive) in the assay on UACC-257; 13.6 µM (inactive) with NCI-H23; 6.19 µM (inactive) with OVCAR-3. For the same compound, the GI50 was 21.4 µM (inactive) in the assay on HCC 2998; 13.5 µM (inactive) in the assay on IGROV-1; 1.69 µM (inactive) in the assay with NCI-H522; 15.1 µM (inactive) in the assay with MDA-N; 11.7 µM (inactive) in the assay on SW-620; 14.5 µM (inactive) in the assay with M14. Moreover, the GI50 in the assay with SK-OV-3 was 42 µM (inactive); with MDA-MB-231, 10.2 µM (inactive).

With `COC(=O)C1C(O)CCC2CN3CCc4c([nH]c5cccc(OC)c45)C3CC21` (stereo not given), the GI50 with MDA-MB-435, in the assay with SR, with ACHN, in the assay with HL-60, with LOX IMVI and in the assay on SN12C was > 100 µM (inactive) in each case. For the same compound, the GI50 in the assay on COLO 205, in the assay on KM12, in the assay with SF-295, in the assay on UACC-257, with NCI-H23 and in the assay with OVCAR-3 was > 100 µM (inactive) in each case. Also, the GI50 in the assay on HCC 2998, with IGROV-1, with NCI-H522, with MDA-N, in the assay with SW-620 and with M14 was > 100 µM (inactive) throughout. The GI50 in the assay with SK-OV-3 and in the assay with MDA-MB-231 was > 100 µM (inactive) each time.

Take `CCOc1ccc2nc(NC(=O)/C(CC(=O)CC(C3=C(O)c4ccccc4CC3=O)c3ccccc3)=N\O)sc2c1` (stereo not given): the GI50 with MDA-MB-435, in the assay with SR, with ACHN, with HL-60, in the assay on LOX IMVI and in the assay on SN12C was > 100 µM (inactive) in each case. Further, the GI50 in the assay on COLO 205, in the assay on KM12, in the assay on SF-295, in the assay on UACC-257, in the assay on NCI-H23 and with OVCAR-3 was > 100 µM (inactive) each time. Further, the GI50 with HCC 2998, in the assay on IGROV-1, with NCI-H522, in the assay on MDA-N, with SW-620 and with M14 was > 100 µM (inactive) in each case. Further, the GI50 in the assay with SK-OV-3 and in the assay with MDA-MB-231 was > 100 µM (inactive) throughout.

Regarding `O=C(O)CCc1nc2c(n1-c1ccccc1)C(=O)c1ccccc1C2=O`, the GI50 in the assay with MDA-MB-435 is 87.5 µM (inactive); with SR, > 100 µM (inactive); in the assay on ACHN, > 100 µM (inactive); in the assay on HL-60 it was > 100 µM (inactive); in the assay on LOX IMVI it was 70.5 µM (inactive); in the assay on SN12C, > 100 µM (inactive). The GI50 in the assay with COLO 205, with KM12, in the assay with SF-295, in the assay with UACC-257, in the assay on NCI-H23 and in the assay with OVCAR-3 was > 100 µM (inactive) throughout. Further, the GI50 in the assay on HCC 2998 is > 100 µM (inactive); in the assay with IGROV-1, > 100 µM (inactive); in the assay with NCI-H522, 38.5 µM (inactive); in the assay with MDA-N, > 100 µM (inactive); in the assay with SW-620 it was > 100 µM (inactive); with M14, > 100 µM (inactive). For the same compound, the GI50 in the assay with SK-OV-3 and in the assay on MDA-MB-231 was > 100 µM (inactive) each time.

Turning to `CCCC(=O)N(C(=O)CCC)C1=C(Cl)C(=O)c2ccccc2C1=O`, the GI50 with MDA-MB-435 is 4.63 µM (inactive); with SR it was 3.02 µM (inactive); in the assay on ACHN, 1.28 µM (inactive); in the assay with HL-60, 0.574 µM (active); in the assay with LOX IMVI it was 3.66 µM (inactive); with SN12C, 13.3 µM (inactive). The GI50 in the assay on COLO 205 is 2.91 µM (inactive); with KM12, 3.49 µM (inactive); with SF-295, 15.8 µM (inactive); in the assay on UACC-257 it was 3.42 µM (inactive); in the assay on NCI-H23, 2.65 µM (inactive); in the assay on OVCAR-3 it was 3.21 µM (inactive). Besides, the GI50 in the assay with HCC 2998 was 4.04 µM (inactive); with IGROV-1, 5.66 µM (inactive); in the assay with NCI-H522, 0.611 µM (active); in the assay with MDA-N, 7.45 µM (inactive); in the assay with SW-620, 2.87 µM (inactive); in the assay on M14 it was 6.62 µM (inactive). For the same compound, the values for the GI50 with SK-OV-3 and in the assay on MDA-MB-231 were 15.5 µM (inactive) and 18.2 µM (inactive), respectively.

Consider `O=C1Nc2ccccc2/C1=N/Nc1ccc([N+](=O)[O-])cc1[N+](=O)[O-]`, for which the GI50 in the assay with MDA-MB-435 is 98.4 µM (inactive); in the assay on SR it was 25.6 µM (inactive); with ACHN, 7.08 µM (inactive); with HL-60, > 100 µM (inactive); in the assay with LOX IMVI it was 6.78 µM (inactive); with SN12C, 11.3 µM (inactive). For the same compound, the GI50 was 14.5 µM (inactive) in the assay with COLO 205; 13.6 µM (inactive) in the assay on KM12; 8.77 µM (inactive) in the assay on SF-295; 8.49 µM (inactive) with UACC-257; 12.4 µM (inactive) with NCI-H23; 3.13 µM (inactive) in the assay with OVCAR-3. Moreover, the GI50 in the assay with HCC 2998 was 11.6 µM (inactive); with IGROV-1, 7.94 µM (inactive); in the assay on NCI-H522, 12.9 µM (inactive); in the assay with MDA-N it was 44.3 µM (inactive); in the assay with SW-620, > 100 µM (inactive); with M14 it was 12.9 µM (inactive). The figures for the GI50 in the assay on SK-OV-3 and in the assay with MDA-MB-231 were 12.1 µM (inactive) and 13.2 µM (inactive), respectively.
